Source: ChEMBL document CHEMBL1240514, “Design and synthesis of potent "sulfur-free" transition state analogue inhibitors of 5'-methylthioadenosine nucleosidase and 5'-methylthioadenosine phosphorylase” (J Med Chem, 2010)
Activity calls are given as the source filed them. The calls are words filed in the database; no cut-off is given here.

Key:
[1] = biological target: T1, S-methyl-5'-thioadenosine phosphorylase (Homo sapiens, UniProt Q13126); assay: Inhibition of His-tagged human MTAP
T1 sequence (Q13126 whole entry): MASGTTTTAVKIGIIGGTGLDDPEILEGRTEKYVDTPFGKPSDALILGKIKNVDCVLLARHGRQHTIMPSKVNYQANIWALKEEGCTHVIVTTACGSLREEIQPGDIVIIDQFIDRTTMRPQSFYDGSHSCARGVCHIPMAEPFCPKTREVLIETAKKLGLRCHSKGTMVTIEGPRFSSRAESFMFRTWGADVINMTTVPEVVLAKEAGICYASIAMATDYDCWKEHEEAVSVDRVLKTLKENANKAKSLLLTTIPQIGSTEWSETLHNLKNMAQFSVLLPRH

[2] = biological target: T2, S-methyl-5'-thioadenosine phosphorylase (Homo sapiens) (UniProt Q13126); assay: Inhibition of His-tagged human MTAP at 2.5 uM
T2 sequence (whole entry): T1 sequence (Q13126 whole entry)

Compound: CC[C@H]1CN(Cc2c[nH]c3c(N)ncnc23)C[C@@H]1O
- Ki [1]: 0.7 nM

Compound: C=CC[C@H]1CN(Cc2c[nH]c3c(N)ncnc23)C[C@@H]1O (racemic)
- Ki [1]: 3 nM

Compound: Nc1ncnc2c(CN3C[C@H](C4CC4)[C@@H](O)C3)c[nH]c12 (racemic)
- Ki [1]: 2.1 nM

Compound: C=C[C@H]1CN(Cc2c[nH]c3c(N)ncnc23)C[C@@H]1O (racemic)
- Ki [1]: 3.2 nM

Compound: C#C[C@H]1CN(Cc2c[nH]c3c(N)ncnc23)C[C@@H]1O (racemic)
- Ki [1]: 31 nM

Compound: CC[C@H]1CN(Cc2c[nH]c3c(N)ncnc23)C[C@H]1O (racemic)
- Ki [1]: 34 nM

Compound: CC(C)C[C@H]1CN(Cc2c[nH]c3c(N)ncnc23)C[C@@H]1O (racemic)
- Ki [1]: 1.7 nM

Compound: Nc1ncnc2c(CN3C[C@H](C4CCCC4)[C@@H](O)C3)c[nH]c12 (racemic)
- Ki [1]: 2.6 nM

Compound: Nc1ncnc2c(CN3C[C@H](CC4CCCCC4)[C@@H](O)C3)c[nH]c12 (racemic)
- Ki [1]: 14 nM

Compound: Nc1ncnc2c(CN3C[C@H](c4ccccc4)[C@@H](O)C3)c[nH]c12 (racemic)
- Ki [1]: 8 nM

Compound: Nc1ncnc2c(CN3C[C@H](O)[C@@H](n4ccnn4)C3)c[nH]c12 (racemic)
- Ki [1]: 59 nM

Compound: Nc1ncnc2c(CN3C[C@H](c4cn(Cc5ccccc5)nn4)[C@@H](O)C3)c[nH]c12 (racemic)
- inhibition [2]: inactive

Compound: Nc1ncnc2c(CN3C[C@H](CCCSCc4ccccc4)[C@@H](O)C3)c[nH]c12 (racemic)
- Ki [1]: 71 nM
